Experimental data reported in patent US10242153B2, “Method for determining the risk profile of neoplastic tissue” (NOVAZOI THERANOSTICS, priority 2014, dated 2019).

Experiments:
ZR-75-30 cells [1] = experiment: Boyden chamber invasion assay, ZR-75-30 cells; type: cell-based; conditions: aphidicolin-treated cells
Protocol: Trajectories of 10 cells each were captured over 18 h with 108 images per movie (6 frames/h). Data were analyzed using Volocity3.0 software (Improvision, Coventry, UK), whereby average net displacement, displacement rate and velocity measurements were generated for the identified cell tracks with respect to cell centroids. Quantitation of net displacement (Panel A), displacement rate (Panel B) and track velocity (Panel C) for cells with 1 and >2 centrosomes are shown as bar graphs. […] Panel E depicts a bar graph showing quantitation of migration rate of treated and untreated ZR-75-30 cells in a wound healing assay. Panel F depicts a bar graph showing the number of migrated cells in a Boyden chamber assay performed with aphidicolin-treated (APD) and untreated (C) ZR-75-30 cells.
(§1) To assess the migratory capacity of aphidicolin treated cells (˜60% cells harboring extra centrosomes) as compared to control cells, a a classical wound healing assay was performed.

ZR-75-30 cells [2] = experiment: Wound healing assay, ZR-75-30 cells; type: cell-based; conditions: aphidicolin-treated cells; control 40 h
Protocol: as §1

ZR-75-30 cells [3] = experiment: Induction of extra centrosomes and markers in ZR-75-30 cells by aphidicolin; type: cell-based
Protocol: Next, centrosome amplification was evaluated to determine the extent to which it directly and independently impacts the migration potential of a mildly aggressive cell line, ZR-75-30. […] In particular, it was of interest to evaluate whether generation of extra centrosomes (by genetic and pharmacological means) impacts migration and invasion kinetics by experimentally inducing centrosome amplification in these cells by aphidicolin treatment (5 μg/ml for 24 h).
Upon treatment with aphidicolin, centrosome amplification was confirmed by immunofluorescence staining for γ-tubulin (green) (data not shown) and changes in γ-tubulin and centrin levels detectable by Western blot analysis.
(§2) Accordingly, these cells can be pharmacologically manipulated with aphidicolin to generate extra centrosomes. […] Following aphidicolin wash-out, cells were stained using anti-centrin-2 antibodies to verify extra centrosomes by immunofluorescence confocal microscopy. About ˜60% ZR-75-30 cells generated extra centrosomes (6-8 per cell) and were evaluated for their sensitivity to the three drugs, griseofulvin, bromonoscapine, and PJ34, and compared with parent ZR-75-30 cells with normal centrosomes.

[4] = test system: BT-549 breast cancer cells; conditions: BT-549 cells with amplified centrosomes; cited from earlier work
KIFC1 = KIFC1 (Homo sapiens, UniProt Q9BW19); conditions: ATP-competitive and MT-noncompetitive; cited from earlier work
PC3 cells = experiment: Peak subG1 fraction by flow cytometry after declustering drugs, PC3 cells; type: cell-based
Protocol: (§3) To evaluate the impact of putative declustering drugs on cell cycle progression and hypodiploidy (<2N DNA content, which may indicate apoptotic cells), MDA-MB-231 (231), PC3, and HeLa cells were treated with different concentrations of declustering drugs, stained with propidium iodide, labeled with anti-MPM2 antibody, and then assessed by flow cytometry at multiple time points over 48 hr. […] The duration, highest degree, and rapidity of onset of MA varied between drugs, drug concentrations, and cell lines (data not shown). In general, the maximum MA achieved was less pronounced in Nos- and PJ-treated cells. Drug-induced onset of MA was corroborated by substantial increases in cyclin B1 levels in all cell lines. For most cases, prolonged MA (˜24 hr in duration) was followed by a substantial increase in the subG1 population fraction. […] Instances where the subGl fraction was elevated without cleaved caspase-3 may either represent caspase-independent cell death or the presence of hypodiploid cells whose fate is unclear. In general, no consistent associations between the extent, duration, or timing of MA within drugs or across cell lines was found.

[5] = test system: ZR-75-30 cells with amplified centrosomes (ZR-A); experiment: Sub-G1 population in ZR-75-30 cells with amplified centrosomes (ZR-A) versus parent cells; type: cell-based; conditions: 25 μM, 48 h
Protocol: Panel A depicts representative DNA histograms comparing cell-cycle kinetics of ZR-75-30 cells and ZR-A cells treated with bromonoscapine (BN, 25 μM), griseofulvin (GF, 25 μM) or PJ34 (25 μM), respectively for 48 h. […] Panel B depicts a quantitative comparison of sub-G1 population in ZR-75-30 and ZR-A cells upon treatment with the three drugs with the same concentration (25 μM) for the same duration (48 h).
as §2

[6] = test system: mammary fibrocystic (MCF10A) cells; experiment: Peak subG1 fraction after declustering drugs, non-malignant MCF10A cells; type: cell-based; conditions: for Peak subG1 percents over 48 h: MCF10A
Protocol: as §3
(§4) To determine whether the CA-inducing activity of declustering drugs is restricted to cancer cells, two non-malignant cell lines, mammary fibrocystic (MCF10A) cells and adult human dermal fibroblasts (HDFs) were treated with these drugs. […] In comparison, 10 and 25 µM RBN increased peak CA over controls in interphase cells (p<0.001 and p=0.001, respectively), with the lower concentration dramatically augmenting peak CA to 56% of cells versus 15% for the higher dose (FIG. 13, panel B).
Importantly, a therapeutic window exists for several of these agents at the concentrations and in the cell lines tested compared to cancer cells.

N1E-115 cells [7] = experiment: Neuritogenesis (neurite extension) in serum-starved N1E-115 cells; type: cell-based, murine; conditions: Mus musculus, N1E-115, 48 h, RedBr-Nos 5 μM, Griseofulvin 10 μM
Protocol: N1E-115 cells grown in serum-starved (SS) medium were evaluated to determine the extent of neurite formation after 48 h of treatment with RedBr-Nos (5 μM), Griseofulvin (10 μM), PJ-34 (10 μM), Paclitaxel (0.05 μM) treatment or untreated control cells (i.e., serum-starved medium (SS) alone). Panels Ai and Aii depict quantitative bar graphs representing the average length of neurites and percentage of population of cells showing neurite length >10 μm, respectively. A hundred cells were counted in each case. […] Panel B depicts an immunoblot showing CLASP1 expression levels in control (C) and CLASP1 siRNA-transfected N1E-115 cells.
Neuritogenesis is a process in nerve cells involving the extension of polarized, elongated neurites. N1E-115 cells usually extend only one major neurite per cell, which can vary in length from 5 to 500 μm. The growth cones of the neurites serve as primary focal points of motility. The effect of declustering agents on cell motility was evaluated by assessing the length and frequency of neurites formed in a serum-free medium on a laminin-coated surface.

N1E-115 cells [8] = experiment: Ki67 and cleaved caspase-3 immunostaining of serum-starved N1E-115 cells; type: cell-based, murine; conditions: RedBr-Nos 5 μM, Griseofulvin 10 μM, PJ-34 10 μM
MCF10A cells = experiment: Centrosome amplification (CA) by microscopy, MCF10A cells; type: cell-based; conditions: 25 and 50 μM
Protocol: (§5) Consequently, CA was assessed in cultures treated with different concentrations of declustering drugs for 6, 12, 18, or 24 h and untreated controls via microscopy. Centrosomes were identified by γ-tubulin and centrin-2 colocalization at discrete foci.
as §4

N1E-115 cells [9] = experiment: Vinculin localization in serum-starved N1E-115 cells; type: cell-based, murine; conditions: serum-starved (SS) cells
Description: Vinculin stabilizes cell-substrate contacts in neuronal cells undergoing neuritogenesis, while activation by actin-binding proteins mobilizes vinculin to focal adhesions. To determine the localization of vinculin in the neurite extensions and the effect of declustering agents on its localization, N1E-115 cells were immunostained cells for vinculin and stained F-actin using rhodamine-phalloidin.

MDA-MB-231 (231) cells = experiment: Peak subG1 fraction by flow cytometry (propidium iodide) after declustering drugs, 231 cells; type: cell-based, human
Protocol: as §3

[10] = test system: adult human dermal fibroblasts (HDFs); experiment: Centrosome amplification (CA) by microscopy, HDFs; type: cell-based; conditions: interphase HDFs only, 25 and 50 μM
Protocol: as §5, §4

[11] = test system: adult human dermal fibroblasts (HDFs); experiment: Peak subG1 fraction after declustering drugs, non-malignant HDFs; type: cell-based; conditions: for Peak subG1 percents over 48 h: HDF
Protocol: as §3, §4
In HDFs, all the drugs tested increased peak subG1 over controls in a significant fashion (p<0.01 for all) (Table 2). […] Thus, it appears that there may be clinically relevant therapeutic windows for these drugs depending on the type of cancer and the drug dosage.

N1E-115 cells [12] = experiment: Drug sensitivity (IC50) of N1E-115 cells; type: cell-based, murine; conditions: Mus musculus; N1E-115 cells (data not shown)
N1E-115 cells [13] = experiment: Interphase declustering index (DI) in N1E-115 cells; type: cell-based, murine; conditions: 6-h treatment, 25 interphase cells, drugs at their respective IC50 concentrations
Protocol: To evaluate their effect on interphase clustering, N1E-115 cells were treated with these drugs at their respective IC50 concentrations for 0, 3, 6 and 9 h and co-immunostained for γ-tubulin and α-tubulin to evaluate centrosomal spread and microtubule nucleation status, respectively.
Cell cycle phases were further evaluated via lamin A/C immunostaining to distinguish interphase declustering events from prophase centrosomal spread. To quantitate the spread of the interphase centrosomal cluster, a 3D reconstruction of z-stack images of 25 randomly-selected interphase cells from the 6-h treatment group of each drug were generated. By defining an ROI (region of interest) around the interphase centrosomal cluster, the volume of the cluster spread was calculated using Volocity software. Likewise, defining an ROI using the cell periphery provided the cell volume.

HeLa cells = experiment: Peak subG1 fraction by flow cytometry after declustering drugs, HeLa cells; type: cell-based
Protocol: as §3

N1E-115 cells [14] = experiment: Golgi (GM130) and γ-tubulin co-immunostaining of drug-treated N1E-115 cells; type: cell-based, murine; conditions: data not shown
Description: The Golgi, which is primarily responsible for posttranslational modification and protein sorting, also functions as a microtubule-organizing center (MTOC). It has been hypothesized that supernumerary centrosomes may better organize the Golgi to enhance directional cell migration. To investigate what happens to the Golgi upon declustering drug-induced dispersal of the interphase centrosomal cluster, drug-treated N1E-115 cells were co-immunostained with GM130 (a cis-Golgi matrix protein crucial for maintaining its structure) and γ-tubulin.

[15] = test system: MCF-10A near normal breast epithelial cells; experiment: Spindle multipolarity and cell death, MCF-10A cells; type: cell-based; conditions: same concentration (10 μM)
[16] = test system: MDA-MB-231 breast cancer cells; experiment: Spindle multipolarity and cell death, MDA-MB-231 cells; type: cell-based, human; conditions: 18 h, 10 μM
Protocol: To investigate a possible role for centrosome declustering drugs (such as brominated noscapines) to induce high-grade spindle multipolarity leading to cell death during mitosis, MDA-MB-231 breast cancer cells were treated with brominated noscapine. “Scattering” of amplified centrosomes in MDA-MB-231 breast cancer cells upon treatment with brominated noscapine was observed (data not shown). […] Based upon this metaphasic occurrence of cell death, this caspase-mediated cellular demise reflects a “metaphase catastrophe”.

KIFC1, sequence (Q9BW19 whole entry): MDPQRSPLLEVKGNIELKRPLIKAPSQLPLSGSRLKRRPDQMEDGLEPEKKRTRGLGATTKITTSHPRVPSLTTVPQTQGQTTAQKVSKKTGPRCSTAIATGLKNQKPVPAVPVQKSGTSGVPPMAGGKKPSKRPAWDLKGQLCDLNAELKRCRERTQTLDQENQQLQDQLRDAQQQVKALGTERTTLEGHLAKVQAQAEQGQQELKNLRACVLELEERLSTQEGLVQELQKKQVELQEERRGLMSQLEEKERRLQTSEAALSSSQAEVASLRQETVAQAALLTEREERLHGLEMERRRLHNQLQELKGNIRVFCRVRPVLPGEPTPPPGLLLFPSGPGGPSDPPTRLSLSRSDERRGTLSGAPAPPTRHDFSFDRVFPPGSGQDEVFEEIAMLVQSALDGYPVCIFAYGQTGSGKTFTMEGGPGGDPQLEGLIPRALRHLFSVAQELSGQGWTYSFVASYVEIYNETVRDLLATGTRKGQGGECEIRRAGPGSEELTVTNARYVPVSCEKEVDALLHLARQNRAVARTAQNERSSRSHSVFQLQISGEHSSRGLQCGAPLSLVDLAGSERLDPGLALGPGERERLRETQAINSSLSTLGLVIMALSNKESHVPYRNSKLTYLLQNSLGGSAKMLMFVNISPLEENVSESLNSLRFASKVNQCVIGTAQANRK
KIFC1, sequence (P68363 whole entry partner): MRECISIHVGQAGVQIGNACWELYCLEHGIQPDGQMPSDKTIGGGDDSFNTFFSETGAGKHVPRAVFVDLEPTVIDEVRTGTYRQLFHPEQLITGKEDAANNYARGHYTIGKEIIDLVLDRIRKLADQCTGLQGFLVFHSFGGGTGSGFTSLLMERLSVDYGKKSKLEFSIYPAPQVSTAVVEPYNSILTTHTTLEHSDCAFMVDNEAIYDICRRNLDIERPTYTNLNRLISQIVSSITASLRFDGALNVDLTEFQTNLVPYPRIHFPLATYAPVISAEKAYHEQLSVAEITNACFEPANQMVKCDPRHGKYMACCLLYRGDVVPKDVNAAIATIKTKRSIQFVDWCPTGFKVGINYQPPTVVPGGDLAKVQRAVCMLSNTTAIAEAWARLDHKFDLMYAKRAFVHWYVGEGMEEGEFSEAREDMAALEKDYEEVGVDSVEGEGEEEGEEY
KIFC1, sequence (Q9BVA1 whole entry partner): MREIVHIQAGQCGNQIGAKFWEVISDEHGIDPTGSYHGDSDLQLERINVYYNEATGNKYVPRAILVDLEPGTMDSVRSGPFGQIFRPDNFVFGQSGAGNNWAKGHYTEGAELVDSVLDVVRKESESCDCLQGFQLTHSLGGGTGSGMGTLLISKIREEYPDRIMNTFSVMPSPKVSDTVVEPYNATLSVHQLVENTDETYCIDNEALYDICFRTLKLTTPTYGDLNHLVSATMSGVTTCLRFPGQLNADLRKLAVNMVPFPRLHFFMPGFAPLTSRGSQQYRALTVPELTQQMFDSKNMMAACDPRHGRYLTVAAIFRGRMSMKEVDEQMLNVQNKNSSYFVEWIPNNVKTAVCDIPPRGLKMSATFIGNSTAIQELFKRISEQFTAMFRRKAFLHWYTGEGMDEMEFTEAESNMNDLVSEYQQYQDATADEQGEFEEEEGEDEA

Compound: C[C@@]1(CO)[C@H](O)CC[C@@]2(C)[C@H]1CC[C@H]1C[C@@H]3C[C@@]12CC[C@]3(O)CO [aphidicolin]
- invasion capacity (ZR-75-30 cells [1]): increase in invasion capacity
- time to fill the scratch wound (ZR-75-30 cells [2]): 18 h
- cells harboring extra centrosomes (ZR-75-30 cells [3]; 5 μg/ml for 24 h): ~60%
- extra centrosomes per cell (ZR-75-30 cells [3]; 24 h treatment, after wash-out): 6-8 per cell
- vimentin levels (immunoblot) (ZR-75-30 cells [3]; following aphidicolin treatment): significant increase in vimentin levels

Compound: CCCc1cc(C(=O)N[C@H](Cc2ccc(-c3cccc(OC(F)(F)F)c3)nc2)C(=O)N[C@@H]2CCNC2)sc1C [AZ82]
- centrosome declustering [4]: causes centrosome declustering
- Ki (KIFC1): 0.043 µM

Compound: COC1=CC(=O)C[C@@H](C)[C@]12Oc1c(Cl)c(OC)cc(OC)c1C2=O [GF, griseofulvin]
- Peak subG1 percents over 48 h (PC3 cells; 25 μM): 33.7%
- Peak subG1 percents over 48 h (PC3 cells; 50 μM): 39.5%
- maximum (peak) subG1 fraction relative to control (PC3 cells; 50 μM): 16.3 × control
- sub-G1 population versus parent ZR-75-30 cells [5]: much higher sub-G1 population compared to parent ZR-75-30 cells
- susceptibility / toxicity in MCF10A cells versus cancer cell lines ([6]; 25 μM): All cancer cell lines were found to be more susceptible
- susceptibility of MCF10A cells versus cancer cell lines ([6]; 50 μM): MCF10A and PC3 cells were equally susceptible
- peak subG1 percent compared to controls ([6]; MCF10A cells): did increase peak SubG1
- Peak subG1 percents over 48 h ([6]; 25 μM): 22.7%
- Peak subG1 percents over 48 h ([6]; 50 μM): 35.1%
- inhibition at 10 µM (N1E-115 cells [7]): 70 to 80%
- Ki67-positive cells (N1E-115 cells [8]): high proportion of Ki67-positive cells
- peak interphase CA (MCF10A cells; interphase MCF10A cells): 13-16%
- CA in mitotic cells versus controls (MCF10A cells; mitotic MCF10A cells): no increase was observed
- vinculin localization and focal adhesion points (N1E-115 cells [9]): complete internalization of vinculin and complete loss of focal adhesion points
- Peak subG1 percents over 48 h (MDA-MB-231 (231) cells; 25 μM): 62.0%
- maximum (peak) subG1 fraction relative to control (MDA-MB-231 (231) cells; 25 μM): 6.4 × control
- Peak subG1 percents over 48 h (MDA-MB-231 (231) cells; 50 μM): 60.0%
- peak CA [10]: 14-15%
- Peak subG1 percents over 48 h ([11]; 25 μM): 32.9%
- Peak subG1 percents over 48 h ([11]; 50 μM): 38.3%
- death in cancer cell lines vs. HDFs ([11]; both concentrations): more death in 231 and HeLa cells
- IC50 (N1E-115 cells [12]): 25 µM
- interphase declustering index (DI): ratio of average cluster volume to average cell volume (N1E-115 cells [13]): 0.28
- Peak subG1 percents over 48 h (HeLa cells; 25 μM): 59.5%
- Peak subG1 percents over 48 h (HeLa cells; 50 μM): 79.0%
- maximum (peak) subG1 fraction relative to control (HeLa cells; 50 μM): 4.3 × control
- fragmentation of the interphase Golgi complex (N1E-115 cells [14]): most robust effect

Compound: brominated noscapine
- spindle multipolarity and cell death [15]: did not exhibit any multipolarity or cell death
- spindle phenotype and cell death [16]: highly aberrant multipolar spindles that succumb to cell death
